23 molecules from PubChem BioAssay (NCI) can be followed below.

Common to all, as to test: NCI tumour cell line growth inhibition, 48 h
The test system of experiment [1] is CAKI-1 renal.
Experiment [2] concerns HCT-15 colon.
Experiment [3] has as its system NCI-H226 lung.
Experiment [4] deals with SF-295 CNS.
Experiment [5] has as its system HCT-116 colon.
In experiment [6] the test system is HL-60(TB) leukemia.
Experiment [7] has as its system MALME-3M melanoma.
Experiment [8] relates to HCC-2998 colon.
Experiment [9] deals with HOP-92 NSCLC.

Structures are written as SMILES. Several values for one entry are separate records, joined by “and”; a condition that tells them apart may be missing. Identical values can stand only once.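 Step 1: Grow cells in 96-well plates. Step 2: Expose to compound for 48 hours at 5 concentrations. Step 3: Interpolate endpoints linearly; if unreached, use highest concentration. GI50 = concentration required for 50% inhibition of growth. TGI: total growth inhibition.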

For the molecule `OCCCc1cnco1`, the TGI in [1], in [2], in experiment [3], in experiment [4], in experiment [5] and in experiment [6] was more than 100 µM each time. Besides, the TGI in experiment [7], in [8] and in experiment [9] was more than 100 µM each time.
For the molecule `CC(C)(CN1CCCCC1)C(=O)CC(SCCN)c1ccc(Cl)cc1` (configuration not stated), the TGI in experiment [1] came out at 5.85 µM; in [2], 4.53 µM; in experiment [3], 10.1 µM; in [4] it was 12.4 µM; in [5], 7.61 µM; in experiment [7], 11.6 µM. The molecule also registered a TGI in [8] of 3.76 µM.
For the molecule `O=[N+]([O-])c1ccc(/C(Cl)=C/c2ccc(/C=C(\Cl)c3ccc([N+](=O)[O-])cc3[N+](=O)[O-])cc2)c([N+](=O)[O-])c1`, the TGI in experiment [1], in experiment [2], in experiment [3], in experiment [4], in [5] and in [6] was more than 100 µM each time. Further, the TGI in [7], in experiment [8] and in [9] was more than 100 µM in each case.
Consider `C#CCn1c(=O)c2cccnc2n(CC#C)c1=O`, for which the TGI in [1], in [2], in [3], in experiment [4], in experiment [5] and in [6] was more than 100 µM in each case. Also, the TGI in experiment [7], in experiment [8] and in experiment [9] was more than 100 µM in each case.
Regarding `C=C1C(=O)c2cc3c(cc2C(c2cc(OC)c(OC)c(OC)c2)[C@@H]1C(=O)O)OCO3` (some centres not stated), the TGI in [1], in [2], in experiment [3], in experiment [4], in [5] and in experiment [7] was more than 100 µM throughout. Further, the TGI is more than 100 µM in experiment [8] and 75.4 µM in experiment [9].
As for `CC(=O)SC(SC(C)=O)SC(C)=O`, the TGI in experiment [2], in experiment [3], in experiment [5], in experiment [6], in [7] and in experiment [8] was more than 100 µM throughout.
Take `CCc1cccc(CC)c1NC(=O)CC1SC(N)=NC1=O` (configuration not stated): the TGI in experiment [2], in experiment [3], in experiment [4], in experiment [5], in experiment [6] and in experiment [7] was more than 100 µM throughout. Also, the TGI in experiment [8] and in experiment [9] was more than 100 µM in each case.
Consider `O=c1nc(N2CCCC2)nc(N2CCCC2)s1`, for which the TGI in experiment [1], in experiment [2], in [3], in [4], in experiment [5] and in experiment [6] was more than 100 µM each time. The TGI in experiment [7], in experiment [8] and in experiment [9] was more than 100 µM throughout.
For the molecule `Cc1ccc(NC(=O)/C(=N\NC(N)=S)C(C#N)c2ccccc2C)cc1C` (configuration not stated), the TGI in experiment [1], in experiment [2], in [3], in experiment [4], in [5] and in [6] was more than 100 µM in each case. For the same molecule, the TGI in [7], in experiment [8] and in [9] was more than 100 µM each time.
`CCc1nc2ccccc2c(=O)n1/N=C(\N=Nc1ccc(Cl)cc1)c1ccccc1`: the TGI is 46.4 µM in experiment [1]; more than 100 µM in experiment [2]; 63.4 µM in experiment [3]; 53.6 µM in experiment [4]; 64.5 µM in experiment [5]; more than 100 µM in experiment [6]. Besides, the values for the TGI in experiment [7], in [8] and in [9] were 90 µM, 95.6 µM and 46.2 µM, respectively.
Take `C=C(COC(C)=O)CC(/C=C(\C)CC/C=C(\C)CO)OC(C)=O` (configuration not stated): the TGI in experiment [2], in [3], in experiment [4], in [5], in experiment [6] and in experiment [8] was more than 100 µM in each case. The molecule further registered a TGI in experiment [9] of more than 100 µM.
For `CC(=O)Oc1c(Br)ccc2cc(C(Br)Br)c(C(=O)c3ccccc3)nc12`, the TGI in experiment [1] stood at 12.9 µM; in experiment [2] it was 44.2 µM; in [3], 40.2 µM; in experiment [4] it was 35.1 µM; in experiment [5], 42.9 µM; in experiment [7], 51 µM. Moreover, the TGI in [8] turned out to be 32.6 µM.
For `COC(=O)c1nc(C(=O)OC)c2c([nH]c3ccccc32)c1C(=O)OC`, the TGI in experiment [2], in [3], in experiment [4], in [5], in [7] and in [8] was more than 100 µM throughout. Besides, the TGI in experiment [9] was more than 100 µM.
In the case of `NC1=NC2=C(CCCC2)C(c2cccs2)S1` (configuration not stated), the TGI in experiment [1], in experiment [2], in experiment [4], in experiment [5], in [6] and in experiment [7] was more than 100 µM throughout. The TGI in experiment [8] and in experiment [9] was more than 100 µM throughout.
With `N#Cc1c(-c2ccccc2)cc(-c2cccs2)c(C#N)c1N`, the TGI in [1], in experiment [2], in [4], in experiment [5], in experiment [6] and in experiment [7] was more than 100 µM in each case. Also, the TGI in [8] and in [9] was more than 100 µM each time.
For the molecule `COC1=CC(=O)OC(/C=C(C)/C=C/C2=C(C)CCCC2(C)C)C1` (configuration not stated), the TGI in [1], in [3], in experiment [4], in [5], in experiment [6] and in [7] was more than 100 µM throughout. Also, the TGI in [8] and in [9] was more than 100 µM each time.
For the molecule `Fc1ccc(C2SCc3nc4ccccc4n32)cc1F` (configuration not stated), the TGI was more than 100 µM in [1]; more than 100 µM in experiment [2]; more than 100 µM in [4]; more than 100 µM in experiment [5]; 26.2 µM in experiment [6]; more than 100 µM in experiment [7]. Also, the TGI in experiment [8] is more than 100 µM.
Consider `C=C1c2[nH]c3ccccc3c2CC(C(=O)O)N1C(O)c1ccc(S(=O)(=O)O)cc1` (configuration not stated), for which the TGI in [1], in experiment [3], in [4], in experiment [5], in experiment [6] and in [7] was more than 100 µM in each case. In addition, the TGI in experiment [8] and in experiment [9] was more than 100 µM each time.
In the case of `O=C(N/C=C/C=C/Sc1ccccc1)OCc1ccccc1`, the TGI is 37.2 µM in experiment [1]; 36.2 µM in experiment [2]; 41.3 µM in experiment [3]; 35.4 µM in experiment [4]; 38.1 µM in experiment [5]; more than 100 µM in [6]. Besides, the TGI was 42.8 µM in experiment [8] and 52.7 µM in experiment [9].
`CC(=O)N(CCN1C(=O)c2ccccc2C1=O)CCN1C(=O)c2ccccc2C1=O`: the TGI in [1], in experiment [2], in experiment [4], in experiment [5], in experiment [6] and in experiment [8] was more than 100 µM each time. The molecule further had a TGI in [9] of more than 100 µM.
As to `O=C1C(=C([O-])c2ccccc2)C(=O)c2ccccc21.O=C1C(=C([O-])c2ccccc2)C(=O)c2ccccc21.[Co+2]`, the GI50 in experiment [1] is 57.3 µM; in [3] it was more than 100 µM; in experiment [4], 59.6 µM; in experiment [5], more than 100 µM; in [7], 40.1 µM; in experiment [8], more than 100 µM. The GI50 in experiment [9] is 62.4 µM. Moreover, the TGI in experiment [1], in experiment [3], in [4], in experiment [5], in experiment [7] and in experiment [8] was more than 100 µM in each case. In experiment [9], the TGI is more than 100 µM.
As to `CCOC(=O)Nc1ccc2c(c1)N(C(=O)CCN(CC)CC)c1ccccc1S2`, the GI50 is 11.4 µM in [1]; 35.7 µM in experiment [2]; 12.5 µM in experiment [5]; 16.1 µM in experiment [6]; 29.1 µM in experiment [7]; 14.2 µM in [9]. Further, the TGI in experiment [1] was 30.6 µM; in [2], > 79.5 µM and 99.4 µM; in experiment [4], 54.4 µM; in experiment [5], > 31.6 µM and 39.9 µM; in experiment [6], 45.9 µM and 57.7 µM; in [7] it was 34.4 µM and 70.3 µM. The TGI in experiment [8] is 32.8 µM and 75.7 µM; in experiment [9], 67.8 µM and 73.5 µM.
For `Cn1c2cc([N+](=O)[O-])ccc2c(=O)c2c(O)cc3c(c21)C=CC(C)(C)O3`, the TGI in experiment [1] is more than 100 µM; in experiment [2] it was more than 100 µM; in experiment [4] it was 47.1 µM; in [6] it was more than 100 µM; in experiment [7], more than 100 µM; in experiment [8], more than 100 µM.
